Measured values from patent US7915291B2, “Hepatitis C virus inhibitors” (Bristol-Myers Squibb Company, priority 2002, dated 2011).
pEC50, pIC50: −log10 of the molar value.

Tests used:
[1] = target: HCV NS3/4A protease complex, BMS strain (UniProt P27958, C1454S/C1711G, species not given/STRAIN_BMS); assay: Recombinant HCV NS3/4A protease complex FRET peptide assay (BMS strain); assay type: biochemical, HCV genotype 1a; settings: NS3/4A BMS strain; read-out: IC50 range
How it was run: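 Recombinant BMS-strain NS3/4A (His-tagged NS4A with three-lysine tail, E. coli) at 2-3 nM preincubated 1 min with compound, then 2 μM ester-linked NS4A/NS4B-based FRET peptide added. Fluorescence followed in real time ~15 min at 25° C. Percent inhibition from slope of linear fluorescence change versus no-compound control.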

[2] = system: HCV replicon in Huh7 cells; assay: HCV replicon cell-based assay; parameters: species or system HCV strain 1B; settings: Hepatitis C virus, Huh-7; HCV replicon, Huh7 cells; read-out: EC50 range

| SMILES | pIC50 [1] | pEC50 [2] |
| --- | --- | --- |
| CC[C@@H]1C[C@]1(NC(=O)[C@@H]1C[C@@H](Oc2cc3c(Cl)nccc3cc2OC)CN1C(=O)[C@@H](NC(=O)OC(C)(C)C)C(C)(C)C)C(=O)NS(=O)(=O)C1CC1 [Compound 300] | > 7.00 | 6.00 to 7.00 |
| C=C[C@@H]1C[C@]1(NC(=O)[C@@H]1CC(Oc2nccc3cc(OC)ccc23)CN1C(=O)[C@@H](NC(=O)N(CC)CC)C(C)(C)C)C(=O)NS(=O)(=O)C1CC1 (stereo partly drawn) [Compound 79] | > 7.00 | 6.00 to 7.00 |
| C=C[C@@H]1C[C@]1(NC(=O)[C@@H]1CC(Oc2nc(-c3ccccc3)cc3ccccc23)CN1C(=O)[C@@H](NC(=O)OC(C)(C)C)[C@H](C)OCC)C(=O)NS(=O)(=O)C1CC1 (stereo partly drawn) [Compound 109] | > 7.00 | > 7.00 |
| C=C[C@@H]1C[C@]1(NC(=O)[C@@H]1C[C@@H](Oc2nccc3cccc(OC)c23)CN1C(=O)[C@@H](NC(=O)OC(C)(C)C)C(C)(C)C)C(=O)NS(=O)(=O)C1CC1 [Compound 264] | 6.00 to 7.00 | 5.00 to 6.00 |
| C=C[C@@H]1C[C@]1(NC(=O)[C@@H]1CC(Oc2nccc3cc(OC)ccc23)CN1C(=O)[C@@H](NC(=O)N(C)OC)C(C)(C)C)C(=O)NS(=O)(=O)C1CC1 (stereo partly drawn) [Compound 78] | > 7.00 | 5.00 to 6.00 |
| C=CC1C[C@]1(NC(=O)[C@@H]1C[C@@H](Oc2nc3ccccc3nc2O)CN1C(=O)[C@@H](NC(=O)OC(C)(C)C)C(C)(C)C)C(=O)NS(=O)(=O)C1CC1 (stereo partly drawn) [Compound 243, BOCNH-P3(L-t-BuGly)-P2[(4R)-(3-hydroxyquinoxaline-2-oxo)-S -proline]-P1(1R,2S VinylAcca)-CONHSO2Cyclopropane] | 6.00 to 7.00 | 4.00 to 5.00 |
| CC[C@@H]1C[C@]1(NC(=O)[C@@H]1C[C@@H](Oc2nccc3cc(OC)c(F)cc23)CN1C(=O)[C@@H](NC(=O)OC(C)(C)C)C(C)(C)C)C(=O)NS(=O)(=O)C1CC1 [Compound 298] | > 7.00 | > 7.00 |
| C=C[C@@H]1C[C@]1(NC(=O)[C@@H]1C[C@@H](Oc2nccc3cc(OC)ccc23)CN1C(=O)[C@@H](NC(=O)OC(C)(C)C)[C@H](C)CC)C(=O)NS(=O)(=O)C1CC1 [Compound 13] | > 7.00 | > 7.00 |
| C=C[C@@H]1CC1(NC(=O)[C@@H]1CC(Oc2nccc3cc(OC)ccc23)CN1C(=O)[C@@H](NC(=O)O[C@H]1C[C@@H](C)CC[C@@H]1C(C)C)C(C)(C)C)C(=O)NS(=O)(=O)C1CC1 (stereo partly drawn) [Compound 65] | > 7.00 | 6.00 to 7.00 |
| C=CC1C[C@]1(NC(=O)[C@@H]1C[C@@H](Oc2nc(-c3csc(N(C)C)n3)cc3cc(OC)ccc23)CN1C(=O)[C@@H](NC(=O)OC(C)(C)C)C(C)(C)C)C(=O)NS(=O)(=O)C1CC1 (stereo partly drawn) [Compound 322] | > 7.00 | > 7.00 |
| C=C[C@@H]1C[C@]1(NC(=O)[C@@H]1C[C@@H](Oc2cncc(-c3ccoc3)c2)CN1C(=O)[C@@H](NC(=O)OC(C)(C)C)C(C)(C)C)C(=O)NS(=O)(=O)C1CC1 [Compound 424] | > 7.00 | 6.00 to 7.00 |
| C=C[C@@H]1C[C@]1(NC(=O)[C@@H]1C[C@@H](Oc2cccc(-c3ccoc3)n2)CN1C(=O)[C@@H](NC(=O)OC(C)(C)C)C(C)(C)C)C(=O)NS(=O)(=O)C1CC1 [Compound 435] | > 7.00 | 6.00 to 7.00 |
| C=C[C@@H]1C[C@]1(NC(=O)[C@@H]1C[C@@H](Oc2nc(-c3cc(OC)no3)cc3cc(OC)ccc23)CN1C(=O)[C@@H](NC(=O)OC(C)(C)C)C(C)(C)C)C(=O)NS(=O)(=O)C1CC1 [Compound 38] | > 7.00 | > 7.00 |
| C=C[C@@H]1CC1(NC(=O)[C@@H]1CC(Oc2nccc3cc(OC)ccc23)CN1C(=O)[C@@H](NC(=O)OC1CCCC1)C(C)(C)C)C(=O)NS(=O)(=O)C1CC1 (stereo partly drawn) [Compound 70] | > 7.00 | > 7.00 |
| C=C[C@@H]1C[C@]1(NC(=O)[C@@H]1C[C@@H](Oc2ncc(C)c3ccccc23)CN1C(=O)[C@@H](NC(=O)OC(C)(C)C)C(C)(C)C)C(=O)NS(=O)(=O)C1CC1 [Compound 250] | > 7.00 | > 7.00 |
